From patent publication US20260285816A1, “Piperazinyl-Modified Quinazolinyl-Aryl Urea Derivative, And Preparation Method And Use Thereof” (Guangxi Normal University, priority 2025, published 2026)
Structures can show the parent of a compound that is named as a salt. Where two headings read alike, the source gives them in different places.

How the values were obtained:
Assay type in all cases: cell-based, human
T24 cells = experiment: CCK-8 anti-proliferative assay, T24; conditions: Table 16, comparative compounds 8-1 to 8-23, co-incubated 48 h, read-out: Anti-proliferative activity (IC50 ± standard deviation) T24
Source text: (§1) The obtained quinazolinyl-aryl urea derivatives were screened for compounds with optimal activity using the following method. All cell lines employed in this experiment were of human origin, including: bladder cancer cells: J82, UM-UC-3, T24, 5637, pancreatic cancer cells: BxPC-3, PANC-1, osteosarcoma cells: 143B, MG-63, cervical cancer cells: HeLa, breast cancer cells: MCF-7, NSCLC cells: A549, hepatoblastoma cells: Hep G2, and ovarian cancer cells: SK-OV-3, as well as normal cell lines: immortalized ureteral epithelial cells (SV-HUC-1), embryonic lung fibroblasts (WI-38).
(§2) Experimental Procedure for Anti-Proliferative Activity Evaluation: The CCK-8 assay was employed. Cells in logarithmic growth phase were harvested, adjusted to appropriate density, and uniformly seeded into 96-well plates using a multichannel pipette (180 μL cell suspension containing complete medium per well, 5,000 cells/well). Blank control wells (containing basal medium, CCK-8 solution, and DMSO only) were set. Cells were incubated at 37° C. under 5% CO2. After 70% confluency was reached, test compounds (target compounds/positive controls) were added at final concentrations of 1, 2, 4, 6, 8, 12, 16, 24, and 30 μM (3 repeated wells per concentration). Compounds were pre-dissolved in DMSO, sterilized, and diluted with medium before adding 20 μL/well. After co-incubation for designated durations, 10 μL CCK-8 solution was added per well followed by 1-4 h incubation (different cells have different incubation times). The reaction was terminated, and OD (optical density) values at 450 nm were measured using a microplate reader. Inhibition rates were calculated as: (ODcontrol−ODtreatment)/ODcontrol×100%. Median inhibitory concentrations (IC50 values) were derived using Origin v8.0 software.

5637 cells = experiment: CCK-8 anti-proliferative assay, 5637; conditions: Table 16, comparative compounds 8-1 to 8-23, co-incubated 48 h, read-out: Anti-proliferative activity (IC50 ± standard deviation) 5637
Method: (§3) The obtained quinazolinyl-aryl urea derivatives were screened for compounds with optimal activity using the following method.
as §2, with “The reaction was terminated, and OD (optical density) values at 450 nm were measured using a microplate reader.” left out

MCF-7 cells = experiment: CCK-8 anti-proliferative assay, MCF-7; conditions: Table 16, comparative compounds 8-1 to 8-23, co-incubated 48 h, read-out: Anti-proliferative activity (IC50 ± standard deviation) MCF-7
Method: as §3
as §2, with “The reaction was terminated, and OD (optical density) values at 450 nm were measured using a microplate reader.” left out

A549 cells = experiment: CCK-8 anti-proliferative assay, A549; conditions: Table 16, comparative compounds 8-1 to 8-23, co-incubated 48 h, read-out: Anti-proliferative activity (IC50 ± standard deviation) A549
Method: as §3
as §2, with “The reaction was terminated, and OD (optical density) values at 450 nm were measured using a microplate reader.” left out

Hep G2 cells = experiment: CCK-8 anti-proliferative assay, Hep G2
Source text: as §1, §2

BxPC-3 cells = experiment: CCK-8 anti-proliferative assay, BxPC-3; conditions: Homo sapiens, BXPC-3; Table 7; co-incubated 48 h; read-out: Anti-proliferative activity (IC50 ± standard deviation) BxPC-3
Source text: as §1, §2

PANC-1 cells = experiment: CCK-8 anti-proliferative assay, PANC-1; conditions: Homo sapiens, PANC-1; Table 7; co-incubated 48 h; read-out: Anti-proliferative activity (IC50 ± standard deviation) PANC-1
Source text: as §1, §2

[1] = Homo sapiens, HepG2, Table 16, comparative compounds 8-1 to 8-23, co-incubated 48 h, read-out: Anti-proliferative activity (IC50 ± standard deviation) Hep G2
[2] = Table 16, comparative compounds 8-1 to 8-23, co-incubated 48 h, read-out: Anti-proliferative activity (IC50 ± standard deviation) Hep G2

SMILES	IC50 (T24 cells; Homo sapiens, T-24)	IC50 (MCF-7 cells; Homo sapiens, MCF7)	IC50 (A549 cells; Homo sapiens, A549)	IC50 (T24 cells)	IC50 (MCF-7 cells)	IC50 (A549 cells)	IC50 (BxPC-3 cells)	IC50 (PANC-1 cells)	IC50 (5637 cells; Homo sapiens)	IC50 (Hep G2 cells; [1])	IC50 (Hep G2 cells; Homo sapiens, HepG2, read-out: IC50 on Hep G2)	IC50 (5637 cells)	IC50 (Hep G2 cells; [2])
COc1cc2ncnc(NCc3cccc(NC(=O)Nc4ccccc4)c3)c2cc1OCCCC(=O)N1CCC(N2CCOCC2)CC1 [Compound 8-1, reference compound]	18.8 ± 0.49 µM	18.3 ± 0.53 µM	> 30 µM						26.2 ± 0.98 µM	28.2 ± 0.49 µM			
COc1cc2ncnc(NCc3cccc(NC(=O)Nc4ccc(C)cc4C)c3)c2cc1OCCCC(=O)N1CCC(N2CCOCC2)CC1 [Compound 8-4, reference compound]	27.1 ± 0.33 µM	18.5 ± 0.63 µM	22.2 ± 1.15 µM						14 ± 0.66 µM	> 30 µM			
CCc1ccccc1NC(=O)Nc1cccc(CNc2ncnc3cc(OC)c(OCCCC(=O)N4CCC(N5CCOCC5)CC4)cc23)c1 [Compound 8-6, reference compound]	19.4 ± 0.44 µM	> 30 µM	> 30 µM						27.5 ± 0.94 µM	> 30 µM			
COc1cc2ncnc(NCc3cccc(NC(=O)Nc4ccc(C(C)C)cc4)c3)c2cc1OCCCC(=O)N1CCC(N2CCOCC2)CC1 [Compound 8-8, reference compound]	7.73 ± 0.23 µM	10 ± 0.19 µM	18.3 ± 0.29 µM						7.6 ± 0.18 µM	17.7 ± 0.46 µM			
COc1ccccc1NC(=O)Nc1cccc(CNc2ncnc3cc(OC)c(OCCCC(=O)N4CCC(N5CCOCC5)CC4)cc23)c1 [Compound 8-10, reference compound]	18.7 ± 0.38 µM	19.3 ± 0.56 µM	> 30 µM						16.9 ± 0.64 µM	28.8 ± 0.58 µM			
COc1cc2ncnc(NCc3cccc(NC(=O)Nc4ccc(F)cc4)c3)c2cc1OCCCCCCN1CCN(CCN2CCOCC2)CC1 [Compound 8-11, reference compound]				23.3 ± 1.82 µM	18.3 ± 0.43 µM	> 30 µM						17.9 ± 0.33 µM	> 30 µM
COc1cc2ncnc(NCc3cccc(NC(=O)Nc4ccc(F)cc4)c3)c2cc1OCCCC(=O)N1CCC(N2CCOCC2)CC1 [Compound 8-13, reference compound]	19.5 ± 0.27 µM	21.5 ± 0.47 µM	> 30 µM						13.9 ± 0.43 µM	> 30 µM			
COc1cc2ncnc(NCc3cccc(NC(=O)Nc4ccccc4Cl)c3)c2cc1OCCCC(=O)N1CCC(N2CCOCC2)CC1 [Compound 8-14, reference compound]	23.1 ± 0.73 µM	18.6 ± 0.35 µM	20.2 ± 0.92 µM						28.9 ± 0.53 µM	> 30 µM			
COc1cc2ncnc(NCc3cccc(NC(=O)Nc4c(Cl)cc(Cl)cc4Cl)c3)c2cc1OCCCC(=O)N1CCC(N2CCOCC2)CC1 [Compound 8-16, reference compound]	> 30 µM	15.9 ± 0.62 µM	> 50 µM						> 30 µM	> 30 µM			
COc1cc2ncnc(NCc3cccc(NC(=O)Nc4ccc(C(F)(F)F)cc4)c3)c2cc1OCCCC(=O)N1CCC(N2CCOCC2)CC1 [Compound 8-18, reference compound]	19.6 ± 0.45 µM	13.2 ± 0.39 µM	18.8 ± 0.59 µM						13.1 ± 0.24 µM	> 30 µM			
COc1cc2ncnc(NCc3cccc(NC(=O)Nc4ccc(F)c(C(F)(F)F)c4)c3)c2cc1OCCCC(=O)N1CCC(N2CCOCC2)CC1 [Compound 8-19, reference compound]	26.2 ± 0.94 µM	22.4 ± 0.82 µM	16.1 ± 0.71 µM						17.9 ± 0.45 µM	> 30 µM			
COc1cc2ncnc(NCc3cccc(NC(=O)Nc4ccccc4Cl)c3)c2cc1OCCCCCCN1CCC(CN2CCN(c3ccccn3)CC2)CC1 [Compound 8-20, reference compound]				18.4 ± 0.81 µM	20.5 ± 0.38 µM	22.4 ± 1.01 µM						14.1 ± 0.29 µM	> 30 µM
COc1cc2ncnc(NCc3cccc(NC(=O)NCc4ccccc4)c3)c2cc1OCCCC(=O)N1CCC(N2CCOCC2)CC1 [Compound 8-23, reference compound]	> 30 µM	23.1 ± 0.92 µM	> 30 µM						26.8 ± 0.63 µM	> 30 µM			

The next lines start with results.

IC50 (T24 cells; Homo sapiens, T-24)	IC50 (MCF-7 cells; Homo sapiens, MCF7)	IC50 (A549 cells; Homo sapiens, A549)	IC50 (T24 cells)	IC50 (MCF-7 cells)	IC50 (A549 cells)	IC50 (BxPC-3 cells)	IC50 (PANC-1 cells)	SMILES	IC50 (5637 cells; Homo sapiens)	IC50 (Hep G2 cells; [1])	IC50 (Hep G2 cells; Homo sapiens, HepG2, read-out: IC50 on Hep G2)	IC50 (5637 cells)	IC50 (Hep G2 cells; [2])
> 30 µM	16.5 ± 0.64 µM	> 30 µM						COc1cc2ncnc(NCc3cccc(NC(=O)Nc4ccccc4C)c3)c2cc1OCCCC(=O)N1CCC(N2CCOCC2)CC1 [Compound 8-2, reference compound]	25.9 ± 1.32 µM	> 30 µM			
20.6 ± 0.68 µM	23.2 ± 0.35 µM	24.1 ± 0.95 µM						COc1cc2ncnc(NCc3cccc(NC(=O)Nc4ccc(C)cc4)c3)c2cc1OCCCC(=O)N1CCC(N2CCOCC2)CC1 [Compound 8-3, reference compound]	> 30 µM	> 30 µM			
23.2 ± 0.54 µM	21.3 ± 0.42 µM	21 ± 0.87 µM						COc1cc2ncnc(NCc3cccc(NC(=O)Nc4cc(C)cc(C)c4)c3)c2cc1OCCCC(=O)N1CCC(N2CCOCC2)CC1 [Compound 8-5, reference compound]	21.7 ± 0.51 µM	> 30 µM			
18.6 ± 0.53 µM	> 30 µM	> 30 µM						CCc1cccc(CC)c1NC(=O)Nc1cccc(CNc2ncnc3cc(OC)c(OCCCC(=O)N4CCC(N5CCOCC5)CC4)cc23)c1 [Compound 8-7, reference compound]	13.9 ± 0.68 µM	24.2 ± 0.53 µM			
4.54 ± 0.04 µM	6.55 ± 0.13 µM	12.5 ± 0.37 µM						COc1cc2ncnc(NCc3cccc(NC(=O)Nc4ccc(C(C)(C)C)cc4)c3)c2cc1OCCCC(=O)N1CCC(N2CCOCC2)CC1 [Compound 8-9, reference compound]	6.25 ± 0.06 µM	12.2 ± 0.17 µM	12.2 ± 0.17 µM		
19.1 ± 0.53 µM	16.8 ± 0.32 µM	13.8 ± 0.35 µM						COc1cc2ncnc(NCc3cccc(NC(=O)Nc4ccc(Cl)cc4)c3)c2cc1OCCCC(=O)N1CCC(N2CCOCC2)CC1 [Compound 8-15, reference compound]	14 ± 0.72 µM	> 30 µM			
			5.42 ± 0.05 µM	12.2 ± 0.32 µM	11.9 ± 0.23 µM			COc1ccc(NC(=O)Nc2cccc(CNc3ncnc4cc(OC)c(OCCCCCCN5CCC(CN6CCN(c7ccccn7)CC6)CC5)cc34)c2)cc1 [Compound 8-21, reference compound]				6.61 ± 0.07 µM	14.1 ± 0.2 µM
						18.3 ± 1.46 µM	27.4 ± 1.77 µM	C#Cc1cccc(Nc2ncnc3cc(OCCOC)c(OCCOC)cc23)c1 [Erlo, erlotinib hydrochloride, reference compound]					
